Experimental data taken from the CheMixHub ionic liquid set.
± gives the uncertainty stated by the source.

Assay: xn = mol fraction of the nth substance listed
Conditions: 100 kPa

C[NH2+]CCC=C1c2ccccc2CCc2ccccc21.[Cl-] + CC[n+]1ccn(C)c1.[Br-] + O
viscosity [mPa·s]
Conditions | 288.15 K | 298.15 K | 308.15 K | 318.15 K
x1 = 0.0001985, x2 = 0.0001801 | 1.149 ± 0.044 | 0.92 ± 0.043 | 0.754 ± 0.043 | 0.638 ± 0.042
x1 = 0.0002171, x2 = 0.0007201 | 1.157 ± 0.044 | 0.927 ± 0.043 | 0.76 ± 0.043 | 0.645 ± 0.042
x1 = 0.0002197, x2 = 0.00126 | 1.164 ± 0.044 | 0.936 ± 0.043 | 0.768 ± 0.043 | 0.653 ± 0.043
x1 = 0.0005409, x2 = 0.0001801 | 1.158 ± 0.044 | 0.928 ± 0.043 | 0.761 ± 0.043 | 0.646 ± 0.042
x1 = 0.00056, x2 = 0.001259 | 1.173 ± 0.044 | 0.944 ± 0.043 | 0.776 ± 0.043 | 0.662 ± 0.043
x1 = 0.0005649, x2 = 0.0007199 | 1.166 ± 0.044 | 0.935 ± 0.043 | 0.768 ± 0.043 | 0.653 ± 0.043
x1 = 0.0009071, x2 = 0.0007196 | 1.176 ± 0.044 | 0.944 ± 0.043 | 0.776 ± 0.043 | 0.66 ± 0.043
x1 = 0.0009111, x2 = 0.00018 | 1.168 ± 0.044 | 0.936 ± 0.043 | 0.769 ± 0.043 | 0.652 ± 0.042
x1 = 0.0009287, x2 = 0.001259 | 1.183 ± 0.044 | 0.952 ± 0.043 | 0.784 ± 0.043 | 0.67 ± 0.043
x1 = 0.001275, x2 = 0.001258 | 1.194 ± 0.044 | 0.962 ± 0.043 | 0.792 ± 0.043 | 0.678 ± 0.043
x1 = 0.001279, x2 = 0.0001799 | 1.179 ± 0.044 | 0.945 ± 0.043 | 0.776 ± 0.043 | 0.659 ± 0.043
x1 = 0.001292, x2 = 0.0007194 | 1.187 ± 0.044 | 0.953 ± 0.043 | 0.784 ± 0.043 | 0.667 ± 0.043
x1 = 0.001649, x2 = 0.0007191 | 1.199 ± 0.044 | 0.963 ± 0.043 | 0.792 ± 0.043 | 0.674 ± 0.043
x1 = 0.001657, x2 = 0.0001799 | 1.19 ± 0.044 | 0.954 ± 0.043 | 0.784 ± 0.043 | 0.666 ± 0.043
x1 = 0.001661, x2 = 0.001258 | 1.206 ± 0.044 | 0.972 ± 0.043 | 0.8 ± 0.043 | 0.686 ± 0.043
x1 = 0.002001, x2 = 0.0001798 | 1.201 ± 0.044 | 0.964 ± 0.043 | 0.792 ± 0.043 | 0.674 ± 0.043
x1 = 0.002028, x2 = 0.0007188 | 1.211 ± 0.044 | 0.974 ± 0.043 | 0.8 ± 0.043 | 0.681 ± 0.043
x1 = 0.002029, x2 = 0.001257 | 1.218 ± 0.044 | 0.982 ± 0.043 | 0.809 ± 0.043 | 0.694 ± 0.043
x1 = 0.002358, x2 = 0.0001797 | 1.213 ± 0.044 | 0.975 ± 0.043 | 0.801 ± 0.043 | 0.682 ± 0.043
x1 = 0.002375, x2 = 0.001257 | 1.231 ± 0.044 | 0.993 ± 0.043 | 0.818 ± 0.043 | 0.702 ± 0.043
x1 = 0.002379, x2 = 0.0007186 | 1.223 ± 0.044 | 0.984 ± 0.043 | 0.808 ± 0.043 | 0.689 ± 0.043
x1 = 0.002737, x2 = 0.0001797 | 1.226 ± 0.044 | 0.986 ± 0.043 | 0.81 ± 0.043 | 0.691 ± 0.043
x1 = 0.002745, x2 = 0.001256 | 1.244 ± 0.044 | 1.004 ± 0.043 | 0.827 ± 0.043 | 0.71 ± 0.043
x1 = 0.002757, x2 = 0.0007183 | 1.236 ± 0.044 | 0.994 ± 0.043 | 0.817 ± 0.043 | 0.698 ± 0.043
x1 = 0.00309, x2 = 0.001256 | 1.258 ± 0.044 | 1.015 ± 0.043 | 0.836 ± 0.043 | 0.718 ± 0.043
x1 = 0.003104, x2 = 0.0001796 | 1.24 ± 0.044 | 0.997 ± 0.043 | 0.819 ± 0.043 | 0.7 ± 0.043
x1 = 0.003108, x2 = 0.000718 | 1.249 ± 0.044 | 1.005 ± 0.043 | 0.826 ± 0.043 | 0.707 ± 0.043
x1 = 0.003467, x2 = 0.0001795 | 1.255 ± 0.044 | 1.008 ± 0.043 | 0.829 ± 0.043 | 0.709 ± 0.043
x1 = 0.003489, x2 = 0.0007178 | 1.263 ± 0.044 | 1.016 ± 0.043 | 0.836 ± 0.043 | 0.716 ± 0.043
x1 = 0.00349, x2 = 0.001255 | 1.272 ± 0.044 | 1.026 ± 0.043 | 0.846 ± 0.043 | 0.725 ± 0.043
